# In article PMC5971061, “Differential Effects of Linkers on the Activity of Amphiphilic Tobramycin Antifungals” (Molecules : A Journal of Synthetic Chemistry and Natural …, 2018):
# Legend:
# [1] = system: Cryptococcus neoformans MYA-895; set-up: method as in PMID 26033722; conditions: previously observed; cited from earlier work
# [2] = system: C. albicans ATCC 10231 (strain A); assay: Time-kill assay, strain A; assay type: cell-based, Candida albicans
# Protocol: (§1) Time-kill assays were used to assess the inhibitory efficiency of 7b against three yeast strains, C. albicans ATCC 10231 (strain A), C. parapsilosis ATCC 22019 (strain J), and C. neoformans clinical isolate CN1. The protocol for time-kill assays followed methods previously described with minor modifications. Yeast cultures were grown overnight in YPD broth at 35 °C with shaking (200 rpm). A working stock of fungal cells was made by diluting cultures in RPMI 1640 medium to an OD600 of 0.125, approximately 1 × 10^6 CFU/mL. From the working stock, 100 μL of cells was added to 4.9 mL of RPMI 1640 medium in sterile culture tubes, making the starting fungal cell concentration […]. Compounds were then added to the fungal cells. The treatment conditions included sterile control, growth control, TOB (parent; negative control), voriconazole (VOR) at 1× MIC (positive control), 7b at 1× and 4× MIC. The treated fungal cultures were incubated at 35 °C with shaking (200 rpm) for 24 h. The samples were taken from the different treatments at regular time points (0, 3, 6, 9, 12, and 24 h.) and plated in duplicates. For each time point, cultures were vortexed, 100 μL of culture was aspirated, and 10-fold serial dilutions were made in sterile ddH2O. From the appropriate dilutions, 100 μL of fungal suspension was spread on PDA plates and incubated at 35 °C for 48 h before the colony counts were determined. At 24 h, 50 μL of 1 mM resazurin was added to the treatments and incubated at 35 °C with rotation for 2 h in the dark for visual inspection. Experiments were performed in duplicate.
# [3] = system: C. albicans ATCC 10231 (strain A); assay: Membrane permeabilization assay using propidium iodide staining; assay type: cell-based, Candida albicans; conditions: 7b at 2× MIC or 4× MIC; TOB 31.3 μg/mL; 2 h treatment; compared to untreated cells
# Protocol: A fresh culture of C. albicans ATCC 10231 (strain A) was prepared in 5 mL of YPD broth in a Falcon tube and was grown overnight at 35 °C at 200 rpm. […] TOB (31.3 μg/mL) was used as a negative control. The cell suspensions were then treated for 2 h at 35 °C with continuous agitation (200 rpm). To prepare a positive control sample, C. albicans ATCC 10231 (strain A) cells were killed by heat shock at 95 °C for 5 min as described by Ocampo and Barrientos. The cells were then centrifuged and resuspended in 500 μL of PBS buffer (pH 7.2 adjusted at room temperature). Subsequently, the cells were treated with propidium iodide (9 μM, final concentration) and incubated for 20 min at room temperature in the dark. […] The data were obtained from at least two independent experiments. The images were also post-processed, utilizing automatic contrast and brightness setting in Microsoft PowerPoint 2013 to eliminate background noise.
# [4] = system: C. neoformans (strain CN1); assay: Time-kill assay, CN1; assay type: cell-based, Cryptococcus neoformans
# Protocol: as §1
# [5] = system: C. parapsilosis ATCC 22019 (strain J); assay: Time-kill assay, strain J; assay type: cell-based, Candida parapsilosis
# Protocol: as §1
# [6] = system: C. neoformans clinical isolates CN1-3; assay: MIC across C. neoformans clinical isolates CN1-3; assay type: cell-based, Cryptococcus neoformans; conditions: Cryptococcus neoformans
# Protocol: The final concentrations of compounds 3, 4, 7a, 7b, 9, and 16, as well as that of TOB tested in this study ranged from 0.24–62.5 μg/mL. CAS was used as a positive control and the final concentrations tested for CAS ranged from 0.03–31.3 μg/mL. Briefly, overnight yeast cultures were grown in yeast peptone dextrose (YPD) broth and the cell density was adjusted to an OD600 of 0.12 (~1 × 10^6 CFU/mL) by using a spectrophotometer. Yeast cell suspensions were further diluted to achieve 1–5 × 10^3 CFU/mL in RPMI 1640 medium, and 100 μL of these yeast cells was added to 96-well microtiter plates containing RPMI 1640 medium and titrated compounds. Each test was performed in triplicate. The plates were incubated at 35 °C for 48 h.
MIC [6] [µg/mL],SMILES,MIC value [1] [µg/mL],"reduction of CFU ([2]; 15.6 μg/mL (4× MIC), after 6 h of treatment) [log10]","reduction of CFU ([2]; 1× MIC (7b 3.9 μg/mL; VOR 1.0 μg/mL), after 9 h of treatment) [log10]",propidium iodide (PI) dye uptake (in words) [3],time to complete fungal cell death ([4]; 0.49 μg/mL (1× MIC)) [h],"reduction of CFU ([4]; 0.49 μg/mL (1× MIC), after 3 h of treatment) [log10]",time to complete fungal cell death ([4]; 1.95 μg/mL (4× MIC)) [h],"decrease in CFU ([5]; 1.95 μg/mL (1× MIC), after 24 h of treatment) [log10]","effect on growth (time-kill, in words) ([5]; 7.8 μg/mL (4× MIC), after 24 h)","effect on growth (time-kill, in words) ([5]; 7b at 1.95 μg/mL (1× MIC))","effect on growth (time-kill, in words) ([2]; 24-h period, TOB 15.6 μg/mL, VOR 1× MIC 1.0 μg/mL)","effect on growth (time-kill, in words) ([4]; controls TOB 15.6 μg/mL and VOR 1× MIC, 24-h period)","effect on growth (time-kill, in words) ([5]; TOB 15.6 μg/mL, 24-h period)"
,"CCCCCCCCCCCCSC[C@H]1O[C@H](O[C@@H]2[C@@H](O)[C@H](O[C@H]3O[C@H](CN)[C@@H](O)C[C@H]3N)[C@@H](N)C[C@H]2N)[C@H](O)[C@@H](N)[C@@H]1O [Compound 3, O-3-Amino-3-deoxy-6-S-dodecyl-6-thio-α-D-glucopyranosyl-(1→6)-O-[2,6-diamino-2,3,6-trideoxy-α-D-ribo-hexopyranosyl-(1→4)]-2-deoxy-D-streptamine]",1.95,,,,,,,,,,,,
,"CCCCCCCCCCCCc1cn(C[C@H]2O[C@H](O[C@@H]3[C@@H](O)[C@H](O[C@H]4O[C@H](CN)[C@@H](O)C[C@H]4N)[C@@H](N)C[C@H]3N)[C@H](O)[C@@H](N)[C@@H]2O)nn1 [Compound 7b, O-3-Amino-3,6-dideoxy-6-(4-dodecyl-1H-1,2,3-triazol-1-yl)-α-D-glucopyranosyl-(1→6)-O-[2,6-diamino-2,3,6-trideoxy-α-D-ribo-hexopyranosyl-(1→4)]-2-deoxy-D-streptamine]",,≥ 2,≥ 2,larger influx of PI dye,6,≥ 2,3,≥ 2,completely killed,fungistatic effect at 1.95 μg/mL (1× MIC) only for the first 3 h,,,
> 62.5,"NC[C@H]1O[C@H](O[C@H]2[C@H](O)[C@@H](O[C@H]3O[C@H](CO)[C@@H](O)[C@H](N)[C@H]3O)[C@H](N)C[C@@H]2N)[C@H](N)C[C@@H]1O [TOB, tobramycin]",,,,negligible staining,,,,,,,did not affect the growth,little to no growth inhibitory effect,did not affect the growth
